The text below walks through data of US20170049725A9, “COMBINATION CANCER TREATMENT” (WISCONSIN ALUMNI RESEARCH FOUNDATION, priority 2014, published 2017).

Series [1] deals with untransformed MCF-10A-Vector cells. Description: Crystal violet cell survival assay. To be noted: metformin 5 mM. The format is cell-based, Human. The protocol: (§1) Top panel: representative images.
(§2) Crystal violet cell survival assay: Cells were seeded overnight on 6-well plates (3×10^5 cells/well). […] Surviving cells were fixed and stained with crystal violet as described in the art. The percentage of cell confluence was determined using NIH Image J software.

Series [2] has as its system transformed MCF-10A-RasV12 cells. Description: Crystal violet cell survival assay. The format is cell-based, Human. Particulars: metformin 5 mM 48 hours preincubation. The protocol:
as §1, §2

Series [3] deals with caspase-3 and PARP in HT29 carcinoma cells. Description: Immunoblotting of caspase activation (procaspase-3, PARP). The format is cell-based, Human. Particulars: metformin 5 mM 48 hours, then TRAIL 1.5 μg/ml 16 hours.
The next series has as its system GILM2 cells. Description: Crystal violet cell survival assay. Particulars: for cytotoxicity of agent alone (cell confluence of surviving cells): metformin 5 mM or agonist 1.5 μg/ml alone. Here is the method:
as §1, §2

In series [4] the test system is GILM2-mCherry mammary tumors. Description: Orthotopic model of metastatic triple-negative breast cancer. The format is in vivo, female NSG mice. Particulars: NSG mice; TRAIL 10 mg/kg i.p. daily for two weeks; metformin 250 mg/mL in drinking water; alone or combined. Here is the method:
GILM2-mCherry cells (1×10^6) were injected intraductally into both 4th mammary glands of female NOD scid IL2 receptor γ chain knockout (NSG) mice. Mice were randomized into 4 groups (10 mice per group): vehicle, TRAIL alone (10 mg/kg i.p. daily for two weeks), metformin alone (250 mg/mL in drinking water), or the combination of these doses of metformin and TRAIL. Mice were treated with metformin beginning three weeks after tumor inoculation and throughout the study; TRAIL treatment was initiated 3.5 weeks after tumor cell inoculation.
To determine whether metformin augments the antitumor effects of TRAIL in an orthotopic model of metastatic triple-negative breast cancer, female NSG mice bearing established GILM2-mCherry mammary tumors were treated with vehicle, metformin alone, TRAIL alone or the combination of metformin and TRAIL.

Series [5] has as its system untransformed MCF-10A-Vector cells. Nature of the series: MTS cell viability assay. Particulars: metformin 5 mM or agonist 1.5 μg/ml alone. The format is cell-based, Human.
Experimental: (§5) Untransformed MCF-10A-Vector and transformed MCF-10A-RasV12 cells were untreated or preincubated with metformin (MF, 5 mM) for 48 hours and then treated with TRAIL (1.5 μg/ml), mapatumumab (1.5 μg/ml), or lexatumumab (1.5 μg/ml) for an additional 24 hours. Cell viability was determined by MTS assay and expressed as fold-change relative to untreated controls. **P<0.01 or ***P<0.001 versus controls.
(§6) Cell viability assay: An MTS cell viability assay was performed as known in the art. Briefly, cells were plated overnight in 96-well plates (3×10^3 cells/well). Cells were then untreated or preincubated with metformin (5 mM) for 48 hours before adding lexatumumab (1.5 μg/ml), mapatumumab (1.5 μg/ml) or TRAIL (1.5 μg/ml). Cell viability was assessed 24 hours later. Cell viability was determined in triplicate wells and expressed as the fold-change relative to untreated controls.
The subject of series [6] is GILM2 breast carcinoma cells. Nature of the series: MTS cell viability assay.
Experimental: (§7) Human GILM2, HT29 and DU145 carcinoma cells were untreated or preincubated with metformin (MF, 5 mM) for 48 hours and then treated with TRAIL (1.5 μg/ml), mapatumumab (1.5 μg/ml), or lexatumumab (1.5 μg/ml) for an additional 24 hours. Cell viability was determined by MTS assay and expressed as fold-change relative to untreated controls. *P<0.05, **P<0.01 or ***P<0.001 versus controls.
as §6
The subject of series [7] is caspase-3 and PARP in MCF-10A-RasV12 cells. Nature of the series: Immunoblotting of caspase activation (procaspase-3, PARP). The format is cell-based, Human. To be noted: metformin 5 mM 48 hours, then TRAIL 1.5 μg/ml 16 hours.
The next series has as its system TRAIL-R1 on GILM2 cells. Nature of the series: Cell surface expression of TRAIL receptors by flow cytometry. Format: cell-based, Human. To be noted: 5 mM metformin for 72 hours.
A further series concerns HT29 colon cancer cells. Description: MTS cell viability assay.
A further series deals with DU145 cells. Description: Crystal violet cell survival assay. The format is cell-based, Human.
From the text: as §1

The next series concerns HT29 cells. Description: Crystal violet cell survival assay. Format: cell-based, Human.
From the text: as §1

The subject of series [8] is XIAP in MDA-MB-468 breast cancer cells. Nature of the series: Immunoblot of XIAP expression. Format: cell-based. Particulars: 5 mM metformin for 72 hours. The protocol: (§3) Immunoblot of XIAP expression in MDA-MB-231, GILM2 and MDA-MB-468 breast cancer cell lines grown in control media (V) or media containing 5 mM metformin (MF) for 72 hours.
(§4) Without being held to theory, it was postulated that metformin might sensitize cancer cells to TRAIL by downregulating XIAP.

In series [9] the test system is XIAP in MDA-MB-231 breast cancer cells. Nature of the series: Immunoblot of XIAP expression. The format is cell-based. Particulars: 5 mM metformin for 72 hours. Here is the method: as §3, §4
For series [10], the system named is caspase-3 and PARP in MCF-10A-Vector cells. Nature of the series: Immunoblotting of caspase activation (procaspase-3, PARP). Format: cell-based, Human. To be noted: metformin 5 mM 48 hours, then TRAIL 1.5 μg/ml 16 hours.
Series [11] concerns TRAIL-R1 mRNA in GILM2 cells. Description: TRAIL receptor mRNA levels by real-time PCR. Format: cell-based, Human. To be noted: 5 mM metformin for 72 hours, normalized to control media. Here is the method:
GILM2 breast cancer cells were cultured in control media or media containing 5 mM metformin (MF) for 72 hours, and total RNA was then isolated. TRAIL-R2 and TRAIL-R1 mRNA levels were measured by real-time PCR and normalized to expression in GILM2 cells grown in control media.
To determine whether metformin sensitizes cancer cells to TRAIL by increasing the expression of its proapoptotic receptors (TRAIL-R1 and TRAIL-R2), GILM2 cells were treated with metformin for 72 hours, and then TRAIL receptor mRNA levels were measured by real-time PCR.

Series [12] deals with DU145 prostate carcinoma cells. Description: MTS cell viability assay.
Experimental: as §7, §6
In series [13] the test system is caspase-3 and PARP in GILM2 carcinoma cells. Description: Immunoblotting of caspase activation (procaspase-3, PARP). To be noted: metformin 5 mM 48 hours, then TRAIL 1.5 μg/ml 16 hours. The format is cell-based, Human.
Series [14] deals with caspase-3 and PARP in DU145 carcinoma cells. The series is described as above. Format: cell-based, Human. Particulars: metformin 5 mM 48 hours, then TRAIL 1.5 μg/ml 16 hours.
Series [15] concerns transformed MCF-10A-RasV12 cells. Description: MTS cell viability assay. The format is cell-based, Human.
Experimental: as §5, §6
The test system of series [16] is XIAP in GILM2 breast cancer cells. Description: Immunoblot of XIAP expression. The format is cell-based, Human. To be noted: 5 mM metformin for 72 hours. Here is the method: as §3, §4
Series [17] deals with metastatic breast cancer cells. To be noted: cited from earlier work.
The mark [18] stands for this setting: metformin 5 mM 48 hours preincubation, then TRAIL 1.5 μg/ml 24 hours.
[19] abbreviates: metformin 5 mM 48 hours preincubation, then lexatumumab 1.5 μg/ml 24 hours.
Where [20] appears, read: metformin 5 mM 48 hours preincubation, then mapatumumab 1.5 μg/ml 24 hours.
Where [21] appears, read: metformin 5 mM or agonist 1.5 μg/ml alone.

“Also recorded” adds a separate entry of the source.

Experimental for HT29 colon cancer cells: as §7, §6
Experimental for TRAIL-R1 on GILM2 cells: GILM2 cells were grown in control media or media containing 5 mM metformin for 72 hours, incubated with control IgG, TRAIL-R1 or TRAIL-R2 mAb, and analyzed by flow cytometry.
To determine whether metformin enhances the cell surface expression of TRAIL receptors in cancer cells, GILM2 cells were treated with metformin for 72 hours, and the cell surface expression of TRAIL-R2 and TRAIL-R1 was determined by flow cytometry.

For `CN(C)C(=N)NC(=N)N` [metformin, N,N-dimethylimidodicarbonimidic diamide], the “effect of metformin alone on cell survival” value in series [1] is on record as “little effect”. The “sensitization to TRAIL (cell survival)” value in [2] (then TRAIL 1.5 μg/ml 24 hours) is “dramatically sensitized”. Further, in series [2] (then lexatumumab 1.5 μg/ml 24 hours), the “sensitization to lexatumumab (cell survival)” value is “dramatically sensitized”. The “effect on mapatumumab-induced cell death” value in [2] (then mapatumumab 1.5 μg/ml 24 hours) is recorded as “only a modest effect”. For the same compound, the “TRAIL-induced proteolysis of the caspase substrate PARP” value in series [3], in series [13] and in [14] was “increased” in each case. The “TRAIL-induced proteolytic activation of procaspase-3” value in series [3], in series [13] and in [14] was “augmented” in each case. The “cytotoxicity of TRAIL (cell confluence of surviving cells)” value with GILM2 cells (setting [18]) is given as “increased the cytoxicity”; in the series with DU145 cells (metformin 5 mM 48 hours preincubation, then TRAIL 1.5 μg/ml 48 hours), “increased the cytoxicity”; with HT29 cells (setting [18]), “increased the cytoxicity”. In addition, the “cytotoxicity of lexatumumab (cell confluence of surviving cells)” value is listed as “increased the cytoxicity” with GILM2 cells (setting [19]); “increased the cytoxicity” with DU145 cells (metformin 5 mM 48 hours preincubation, then lexatumumab 1.5 μg/ml 48 hours); “increased the cytoxicity” with HT29 cells (setting [19]). For the same compound, the “cytotoxicity of mapatumumab (cell confluence of surviving cells)” value in the series on GILM2 cells (setting [20]) is “increased the cytoxicity; also recorded: more modest”; in the series with DU145 cells (metformin 5 mM 48 hours preincubation, then mapatumumab 1.5 μg/ml 48 hours), “increased the cytoxicity”; in the series on HT29 cells (setting [20]), “increased the cytoxicity; also recorded: more modest”. Also, the entries for the “cytotoxicity of agent alone (cell confluence of surviving cells)” value with GILM2 cells, in the series with DU145 cells (setting [21]) and with HT29 cells (setting [21]) were “modest cytoxicity”, “modest cytoxicity” and “more robust cytotoxicity”, respectively. The lung metastases result in series [4] is listed as “no significant effect”. In addition, in series [4], the mammary tumor growth entry is on record as “no significant effect”. Further, the “effect on cell viability, agent individually” value in series [5] is given as “largely resistant”; in series [6] (setting [21]), “modest or no significant effect”; with HT29 colon cancer cells (setting [21]) it was “modest or no significant effect”; in series [12] (setting [21]), “modest or no significant effect”; in series [15] (setting [21]) it was “only modest effects”. Moreover, the “sensitivity to TRAIL (cell viability)” value (in series [6] (setting [18]); in the series on HT29 colon cancer cells (setting [18]); in series [12] (setting [18]); in [15] (setting [18])) was “enhanced the sensitivity” throughout. In addition, the “sensitivity to lexatumumab (cell viability)” value (in series [6] (setting [19]); with HT29 colon cancer cells (setting [19]); in series [12] (setting [19]); in [15] (setting [19])) was “enhanced the sensitivity” in each case. In addition, the “cytotoxicity of mapatumumab (cell viability)” value (in series [6] (setting [20]); in the series with HT29 colon cancer cells (setting [20]); in [12] (setting [20])) was “did not augment the cytotoxicity” in each case. Further, the “TRAIL-induced proteolytic cleavage of PARP” value in series [7] is “enhanced”; in [10], “little effect”. For the same compound, the entries for the “TRAIL-induced proteolytic cleavage of procaspase-3” value in series [7] and in series [10] were “enhanced” and “little effect”, respectively. Also, the “cell surface expression of TRAIL-R1” value with TRAIL-R1 on GILM2 cells was “did not significantly affect”. Further, the XIAP protein levels result in [8], in [9] and in series [16] was “reduction” each time. Also, the “TRAIL-R1 mRNA levels” value in series [11] is recorded as “modestly reduced”. In addition, the “sensitivity to mapatumumab (cell viability)” value in series [15] (setting [20]) was “not”.

Consider “TRAIL: Soluble recombinant TRAIL corresponding to amino acids 95-281 of the protein, expressed in bacteria, His-tagged”, for which, in series [4], the lung metastases entry is “inhibited” and the mammary tumor growth result is “inhibited”.

As to “lexatumumab: fully human IgG1 agonistic monoclonal antibody that binds TRAIL-R2/DR5”, in the series on GILM2 cells, the “cytotoxicity of agent alone (cell confluence of surviving cells)” value is reported as “modest cell death”. The “sensitivity to apoptosis induction, compared with mapatumumab” value in [17] was “more sensitive”.
